Data reported in ChEMBL document CHEMBL1201862, “PubChem BioAssay data set” (2004).
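1) Cells in 96-well plates. 2) Compound, 48 h, 5 concentrations. 3) Linear interpolation between surrounding doses. 4) Unreached endpoint = highest concentration. Here, GI50 denotes the concentration required for 50% inhibition of growth.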 Active and inactive are the calls of the source. Rule as the data show it: active = GI50 up to about 1.1 µM and inactive = higher. Starred links: 1 amine or outer side, 2 acyl side, 3 side chain; linkers in the order of their positions; H or OH if unused. Positions of bridges follow the written chain, without caps; N, C: chain ends. Non-standard residues stand in square brackets, D forms with d. Residues, ends and D or L forms follow the SMILES beside them. Chains are numbered I, II in the order given. Actinocin(1to9) = Cc1c2oc3c(C)ccc(C(=O)[*:2])c3nc-2c(C(=O)[*:1])c(N)c1=O; NMeV = CN[CH](C(=O)O)C(C)C; Sar = CNCC(=O)O

Legend:
Test in all cases: inhibition of tumour cell growth, NCI panel, 48 h
EKVX = test system: EKVX
SNB-75 = test system: SNB-75
U-251 = test system: U-251
A498 = test system: A498
SNB-19 = test system: SNB-19
PC-3 = test system: PC-3
CCRF-CEM = test system: CCRF-CEM
OVCAR-4 = test system: OVCAR-4
HOP-62 = test system: HOP-62
IGROV-1 = test system: IGROV-1
COLO 205 = test system: COLO 205
UACC-62 = test system: UACC-62
HCT-15 = test system: HCT-15
MOLT-4 = test system: MOLT-4
OVCAR-5 = test system: OVCAR-5
SF-295 = test system: SF-295
DU-145 = test system: DU-145
786-0 = test system: 786-0
SK-MEL-2 = test system: SK-MEL-2
SW-620 = test system: SW-620

SMILES | GI50 (EKVX) | GI50 (SNB-75) | GI50 (U-251) | GI50 (A498) | GI50 (SNB-19) | GI50 (PC-3) | GI50 (CCRF-CEM) | GI50 (OVCAR-4) | GI50 (HOP-62) | GI50 (IGROV-1) | GI50 (COLO 205) | GI50 (UACC-62) | GI50 (HCT-15) [µM] | GI50 (MOLT-4) | GI50 (OVCAR-5) | GI50 (SF-295) | GI50 (DU-145) | GI50 (786-0) | GI50 (SK-MEL-2) | GI50 (SW-620)
O=C(NCc1ccccc1)c1cc2ccccc2o/c1=N\c1cccc(C(F)(F)F)c1 | > 100 µM (inactive) | 74.8 µM (inactive) | 71 µM (inactive) | 85.1 µM (inactive) | > 100 µM (inactive) | 44.3 µM (inactive) | 45.1 µM (inactive) | 69.7 µM (inactive) | 85.3 µM (inactive) | 81.3 µM (inactive) | 29.3 µM (inactive) | 52.2 µM (inactive) | 36.9 | 23.4 µM (inactive) | > 100 µM (inactive) | 51.3 µM (inactive) | > 100 µM (inactive) | 29.8 µM (inactive) | 28.6 µM (inactive) | 43 µM (inactive)
CCC(C)C1NC(=O)C(NC(=O)c2c3nc4c(C(=O)NC5C(=O)NC(C(C)CC)C(=O)N6CCCC6C(=O)N(C)CC(=O)N(C)C(C(C)C)C(=O)OC5C)ccc(C)c4oc-3c(C)c(=O)c2N)C(C)OC(=O)C(C(C)C)N(C)C(=O)CN(C)C(=O)C2CCCN2C1=O (stereo not given) (I: TIP[Sar][NMeV] / II: TIP[Sar][NMeV]; ester I:1-I:C, II:1-II:C; linker I:N-II:N via Actinocin(1to9); configuration not given here) | 0.0145 µM (active) | 0.00319 µM (active) | < 0.0001 µM (active) | 0.0102 µM (active) | < 0.0001 µM (active) | 0.000895 µM (active) | < 0.0001 µM (active) | 0.00625 µM (active) | < 0.0001 µM (active) | < 0.0001 µM (active) | < 0.0001 µM (active) | 0.000169 µM (active) | 0.0172 | < 0.0001 µM (active) | 0.00459 µM (active) | 0.000477 µM (active) | 0.011 µM (active) | 0.000195 µM (active) | 0.00101 µM (active) | 0.000236 µM (active)
